Measurements taken from PubChem BioAssay (NCI).
Several values for one entry are separate records, joined by “and”; a condition that tells them apart may be missing. Equal entries are not always repeated.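 Exposure lasted 48 hours, with cells grown in 96-well plates and compounds tested at five concentrations. Here, GI50 denotes the concentration required for 50% inhibition of growth. TGI: concentration producing complete growth inhibition.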

What was measured:
Assay in all cases: NCI tumour cell line growth inhibition, 48 h
HL-60(TB) leukemia = test system: HL-60(TB) leukemia
SK-MEL-28 melanoma = test system: SK-MEL-28 melanoma
SF-268 CNS = test system: SF-268 CNS
NCI-H460 lung = test system: NCI-H460 lung
HOP-92 NSCLC = test system: HOP-92 NSCLC
SK-MEL-5 melanoma = test system: SK-MEL-5 melanoma
MALME-3M melanoma = test system: MALME-3M melanoma
K-562 leukemia = test system: K-562 leukemia
UACC-257 melanoma = test system: UACC-257 melanoma
EKVX NSCLC = test system: EKVX NSCLC
ACHN renal = test system: ACHN renal
LOX IMVI melanoma = test system: LOX IMVI melanoma
CCRF-CEM leukemia = test system: CCRF-CEM leukemia
HT29 colon = test system: HT29 colon
COLO 205 colon = test system: COLO 205 colon
M14 melanoma = test system: M14 melanoma
MDA-N = test system: MDA-N
PC-3 prostate = test system: PC-3 prostate
RPMI-8226 leukemia = test system: RPMI-8226 leukemia
OVCAR-4 ovarian = test system: OVCAR-4 ovarian
RXF 393 renal = test system: RXF 393 renal
MOLT-4 leukemia = test system: MOLT-4 leukemia
NCI-H522 lung = test system: NCI-H522 lung
HCT-116 colon = test system: HCT-116 colon
SF-295 CNS = test system: SF-295 CNS
786-0 renal = test system: 786-0 renal
NCI/ADR-RES ovarian = test system: NCI/ADR-RES ovarian
SN12C renal = test system: SN12C renal
KM12 colon = test system: KM12 colon
BT-549 breast = test system: BT-549 breast
DU-145 prostate = test system: DU-145 prostate
HCC-2998 colon = test system: HCC-2998 colon
MDA-MB-435 = test system: MDA-MB-435
NCI-H23 lung = test system: NCI-H23 lung
MCF7 breast = test system: MCF7 breast
HOP-62 NSCLC = test system: HOP-62 NSCLC
HS 578T breast = test system: HS 578T breast
SW-620 colon = test system: SW-620 colon
A549 NSCLC = test system: A549 NSCLC
SNB-75 CNS = test system: SNB-75 CNS
SNB-19 CNS = test system: SNB-19 CNS
U251 CNS = test system: U251 CNS
OVCAR-8 ovarian = test system: OVCAR-8 ovarian
OVCAR-5 ovarian = test system: OVCAR-5 ovarian
T-47D breast = test system: T-47D breast
CAKI-1 renal = test system: CAKI-1 renal
MDA-MB-231 breast = test system: MDA-MB-231 breast
OVCAR-3 ovarian = test system: OVCAR-3 ovarian
TK-10 renal = test system: TK-10 renal
UO-31 renal = test system: UO-31 renal
UACC-62 melanoma = test system: UACC-62 melanoma
SF-539 CNS = test system: SF-539 CNS
HCT-15 colon = test system: HCT-15 colon
A498 renal = test system: A498 renal
SK-OV-3 ovarian = test system: SK-OV-3 ovarian

Question: Which GI50 (HL-60(TB) leukemia) does the source give for CC(C)(C)c1ccc(C(O)CCCN2CCC(C(O)(c3ccccc3)c3ccccc3)CC2)cc1 (stereo unspecified) here?
Answer: 2.16 µM

Question: What about the TGI (HL-60(TB) leukemia) of the same compound?
Answer: 3.97 µM

Question: What about the GI50 (SK-MEL-28 melanoma) of the same compound?
Answer: 1.72 µM and 13.9 µM

Question: What about the TGI (SK-MEL-28 melanoma) of the same compound?
Answer: 3.11 µM and 19.2 µM

Question: And the GI50 (SF-268 CNS)?
Answer: 1.57 µM

Question: What about the TGI (SF-268 CNS) of the same compound?
Answer: 2.92 µM

Question: What about the GI50 (NCI-H460 lung) of the same compound?
Answer: 1.6 µM and 14.6 µM

Question: What about the TGI (NCI-H460 lung) of the same compound?
Answer: 2.95 µM and 21.5 µM

Question: And the GI50 (HOP-92 NSCLC)?
Answer: 1.2 µM

Question: And the TGI (HOP-92 NSCLC)?
Answer: 2.6 µM

Question: What about the GI50 (SK-MEL-5 melanoma) of the same compound?
Answer: 1.59 µM and 13.8 µM

Question: And the TGI (SK-MEL-5 melanoma)?
Answer: 2.93 µM and 23.5 µM

Question: What about the TGI (MALME-3M melanoma) of the same compound?
Answer: 3.03 µM and 23.7 µM

Question: What about the GI50 (K-562 leukemia) of the same compound?
Answer: 2.18 µM

Question: What about the TGI (K-562 leukemia) of the same compound?
Answer: 5.14 µM

Question: And the GI50 (UACC-257 melanoma)?
Answer: 1.4 µM and 13.2 µM

Question: And the TGI (UACC-257 melanoma)?
Answer: 2.85 µM and 18.2 µM

Question: And the GI50 (EKVX NSCLC)?
Answer: 1.37 µM

Question: What about the TGI (EKVX NSCLC) of the same compound?
Answer: 2.77 µM

Question: What about the GI50 (ACHN renal) of the same compound?
Answer: 1.67 µM

Question: What about the TGI (ACHN renal) of the same compound?
Answer: 3.03 µM

Question: And the GI50 (LOX IMVI melanoma)?
Answer: 1.5 µM

Question: What about the TGI (LOX IMVI melanoma) of the same compound?
Answer: 2.82 µM

Question: What about the GI50 (CCRF-CEM leukemia) of the same compound?
Answer: 2 µM

Question: And the TGI (CCRF-CEM leukemia)?
Answer: 5.8 µM

Question: What about the TGI (HT29 colon) of the same compound?
Answer: 2.23 µM and 20.9 µM

Question: And the TGI (COLO 205 colon)?
Answer: 2.52 µM and 21.2 µM

Question: What about the GI50 (M14 melanoma) of the same compound?
Answer: 1.7 µM and 13.5 µM

Question: And the TGI (M14 melanoma)?
Answer: 3.21 µM and 18.4 µM

Question: What about the GI50 (MDA-N) of the same compound?
Answer: 23.7 µM

Question: And the TGI (MDA-N)?
Answer: 42.6 µM

Question: What about the GI50 (PC-3 prostate) of the same compound?
Answer: 1.61 µM

Question: What about the GI50 (RPMI-8226 leukemia) of the same compound?
Answer: 1.94 µM

Question: And the TGI (RPMI-8226 leukemia)?
Answer: 5.49 µM

Question: And the GI50 (OVCAR-4 ovarian)?
Answer: 1.44 µM

Question: And the TGI (OVCAR-4 ovarian)?
Answer: 2.75 µM

Question: What about the GI50 (RXF 393 renal) of the same compound?
Answer: 1.08 µM

Question: And the TGI (RXF 393 renal)?
Answer: 2.27 µM

Question: What about the GI50 (MOLT-4 leukemia) of the same compound?
Answer: 2.16 µM

Question: And the TGI (MOLT-4 leukemia)?
Answer: 5.32 µM

Question: And the GI50 (NCI-H522 lung)?
Answer: 1.83 µM and 13.6 µM

Question: And the TGI (NCI-H522 lung)?
Answer: 3.31 µM and 21.2 µM

Question: How did the TGI (HCT-116 colon) turn out when N#Cc1nc2cc(Cl)ccc2nc1N1CCN(c2ccc([N+](=O)[O-])cc2)CC1 was run?
Answer: > 100 µM

Question: What about the TGI (SF-295 CNS) of the same compound?
Answer: > 100 µM

Question: What about the TGI (SK-MEL-28 melanoma) of the same compound?
Answer: > 100 µM

Question: What about the TGI (786-0 renal) of the same compound?
Answer: > 100 µM

Question: And the TGI (SF-268 CNS)?
Answer: > 100 µM

Question: And the TGI (NCI/ADR-RES ovarian)?
Answer: > 100 µM

Question: And the TGI (SN12C renal)?
Answer: > 100 µM

Question: What about the TGI (NCI-H460 lung) of the same compound?
Answer: > 100 µM

Question: What about the TGI (KM12 colon) of the same compound?
Answer: > 100 µM

Question: What about the TGI (SK-MEL-5 melanoma) of the same compound?
Answer: > 100 µM

Question: And the TGI (K-562 leukemia)?
Answer: > 100 µM

Question: What about the TGI (BT-549 breast) of the same compound?
Answer: > 100 µM

Question: And the TGI (DU-145 prostate)?
Answer: > 100 µM

Question: And the TGI (UACC-257 melanoma)?
Answer: > 100 µM

Question: And the TGI (EKVX NSCLC)?
Answer: > 100 µM

Question: And the TGI (HCC-2998 colon)?
Answer: > 100 µM

Question: And the TGI (MDA-MB-435)?
Answer: > 100 µM

Question: What about the TGI (ACHN renal) of the same compound?
Answer: > 100 µM

Question: And the TGI (HT29 colon)?
Answer: > 100 µM

Question: And the TGI (NCI-H23 lung)?
Answer: > 100 µM

Question: And the TGI (MCF7 breast)?
Answer: > 100 µM

Question: What about the TGI (HOP-62 NSCLC) of the same compound?
Answer: > 100 µM

Question: What about the TGI (HS 578T breast) of the same compound?
Answer: > 100 µM

Question: And the TGI (SW-620 colon)?
Answer: > 100 µM

Question: What about the TGI (COLO 205 colon) of the same compound?
Answer: > 100 µM

Question: What about the TGI (M14 melanoma) of the same compound?
Answer: > 100 µM

Question: And the TGI (MDA-N)?
Answer: > 100 µM

Question: And the TGI (A549 NSCLC)?
Answer: > 100 µM

Question: What about the TGI (SNB-75 CNS) of the same compound?
Answer: > 100 µM

Question: What about the TGI (SNB-19 CNS) of the same compound?
Answer: > 100 µM

Question: What about the TGI (U251 CNS) of the same compound?
Answer: > 100 µM

Question: And the TGI (OVCAR-8 ovarian)?
Answer: > 100 µM

Question: And the TGI (OVCAR-5 ovarian)?
Answer: > 100 µM

Question: What about the TGI (PC-3 prostate) of the same compound?
Answer: > 100 µM

Question: What about the TGI (T-47D breast) of the same compound?
Answer: > 100 µM

Question: What about the TGI (CAKI-1 renal) of the same compound?
Answer: > 100 µM

Question: What about the TGI (MDA-MB-231 breast) of the same compound?
Answer: > 100 µM

Question: And the TGI (OVCAR-3 ovarian)?
Answer: > 100 µM

Question: What about the TGI (RPMI-8226 leukemia) of the same compound?
Answer: > 100 µM

Question: And the TGI (TK-10 renal)?
Answer: > 100 µM

Question: And the TGI (OVCAR-4 ovarian)?
Answer: > 100 µM

Question: What about the TGI (UO-31 renal) of the same compound?
Answer: > 100 µM

Question: And the TGI (UACC-62 melanoma)?
Answer: > 100 µM

Question: What about the TGI (SF-539 CNS) of the same compound?
Answer: > 100 µM

Question: What about the TGI (HCT-15 colon) of the same compound?
Answer: > 100 µM

Question: What about the TGI (RXF 393 renal) of the same compound?
Answer: > 100 µM

Question: What about the TGI (MOLT-4 leukemia) of the same compound?
Answer: > 100 µM

Question: And the TGI (A498 renal)?
Answer: > 100 µM

Question: And the TGI (SK-OV-3 ovarian)?
Answer: > 100 µM
